In patent publication US20220242870A1, “HETEROCYCLE-FUSED PYRIMIDINE DERIVATIVE AND USE THEREOF” (VORONOI Inc., priority 2019, published 2022):

Tests used:
human GST-HPK1 (1-346) = target: T1, human GST-HPK1 (1-346) (Homo sapiens, UniProt Q92918); experiment: HPK1 enzyme inhibitory ability (ADP-Glo kinase assay); format: biochemical; settings: human GST-HPK1 3 ng, ATP 3 uM, 25° C. 2 hours
T1 construct: purified human GST-HPK1 (1-346, Signalchem) enzyme; purchased Signalchem
T1 sequence (Q92918 1-346): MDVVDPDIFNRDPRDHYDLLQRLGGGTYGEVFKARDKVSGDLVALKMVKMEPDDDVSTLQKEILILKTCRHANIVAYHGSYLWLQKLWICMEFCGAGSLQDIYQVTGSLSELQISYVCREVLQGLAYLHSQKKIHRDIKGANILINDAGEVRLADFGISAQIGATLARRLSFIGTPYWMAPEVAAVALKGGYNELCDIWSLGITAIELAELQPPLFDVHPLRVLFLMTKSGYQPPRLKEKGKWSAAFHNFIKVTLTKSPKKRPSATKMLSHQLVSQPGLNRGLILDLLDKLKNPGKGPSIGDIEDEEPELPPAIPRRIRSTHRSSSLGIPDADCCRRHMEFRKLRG
Procedure: In order to evaluate the inhibitory activities of the example compounds according to the present invention on the HPK1 (hematopoietic progenitor kinase 1) enzyme, the following experiment was performed. The example compounds were reacted with the purified human GST-HPK1 (1-346, Signalchem) enzyme to evaluate the enzyme inhibitory ability by the following method. As the reaction buffer, a composition of 40 mM Tris-HCl pH 7.4, 20 mM MgCl2, 0.5 mg/mL BSA and 50 uM DTT was used, and reactions of all test matters were performed on the reaction buffer. Upon the test, the human GST-HPK1 (3 ng) enzyme, the purified ATP (3 uM) and a specific substrate solution were reacted at 25° C. for 2 hours, and then the enzyme activity was identified using an in vitro ADP-Glo™ kinase assay (promega). The enzyme activity reaction solution, the ADP-Glo reaction solution and the enzyme ability detection solution were reacted in a ratio of 2:2:1 to measure luminescence. The enzyme activity inhibition degree according to the treatment concentrations of the respective compounds was calculated based on the fluorescence of the enzyme activity of the solvent control group that was not treated with the compound, where the concentration of each compound that inhibited enzyme activity inhibition by 50% was determined as an IC50 (nM) value.

MCF-7 cells = experiment: Breast cancer cell line proliferation inhibitory activity (CellTiter-Glo 2.0); format: cell-based; settings: Homo sapiens, MCF7, 120 hours
Procedure: In order to evaluate the breast cancer cell line cell proliferation inhibitory activities of Examples according to the present invention, the following experiment was performed. Breast cancer cells of MCF-7 (Korean Cell Line Bank) were planted in a clear bottom white 96-well plate (Corning) so as to be 3×10^3/150 μl/well, and a culture solution comprising the compound continuously diluted in multiples of 3 at 12 concentrations (0.00001-2 mM) and a DMSO control group was added by 0.5 μl/well and treated so that the final concentration was 0.00005-10 μM, and then cultured in a 37° C. CO2 incubator for 120 hours. After 120 hours, the plate treated with the compound is taken out, and CellTiter-Glo® 2.0 Assay (Promega) solution is treated at 150 μl/well and then they mix well. They mix well at room temperature for 10 minutes or so, and the fluorescence is measured with a microplate reader. The data were expressed as a percentage in proportion to the vehicle standard treated cells, the GI50 (nM) values were calculated using GraphPad Prism 8.3.0 (GraphPad software Inc., San Diego), and the results were shown in Table 3 below.

human FLT3-ITD enzyme = target: T2, human FLT3-ITD enzyme (Homo sapiens, UniProt P36888); experiment: FLT3 enzyme inhibitory ability (ADP-Glo kinase assay); format: biochemical; settings: human FLT3-ITD enzyme 10 ng, ATP 10 μM, 25° C. 1 hour
T2 sequence (P36888 1-993): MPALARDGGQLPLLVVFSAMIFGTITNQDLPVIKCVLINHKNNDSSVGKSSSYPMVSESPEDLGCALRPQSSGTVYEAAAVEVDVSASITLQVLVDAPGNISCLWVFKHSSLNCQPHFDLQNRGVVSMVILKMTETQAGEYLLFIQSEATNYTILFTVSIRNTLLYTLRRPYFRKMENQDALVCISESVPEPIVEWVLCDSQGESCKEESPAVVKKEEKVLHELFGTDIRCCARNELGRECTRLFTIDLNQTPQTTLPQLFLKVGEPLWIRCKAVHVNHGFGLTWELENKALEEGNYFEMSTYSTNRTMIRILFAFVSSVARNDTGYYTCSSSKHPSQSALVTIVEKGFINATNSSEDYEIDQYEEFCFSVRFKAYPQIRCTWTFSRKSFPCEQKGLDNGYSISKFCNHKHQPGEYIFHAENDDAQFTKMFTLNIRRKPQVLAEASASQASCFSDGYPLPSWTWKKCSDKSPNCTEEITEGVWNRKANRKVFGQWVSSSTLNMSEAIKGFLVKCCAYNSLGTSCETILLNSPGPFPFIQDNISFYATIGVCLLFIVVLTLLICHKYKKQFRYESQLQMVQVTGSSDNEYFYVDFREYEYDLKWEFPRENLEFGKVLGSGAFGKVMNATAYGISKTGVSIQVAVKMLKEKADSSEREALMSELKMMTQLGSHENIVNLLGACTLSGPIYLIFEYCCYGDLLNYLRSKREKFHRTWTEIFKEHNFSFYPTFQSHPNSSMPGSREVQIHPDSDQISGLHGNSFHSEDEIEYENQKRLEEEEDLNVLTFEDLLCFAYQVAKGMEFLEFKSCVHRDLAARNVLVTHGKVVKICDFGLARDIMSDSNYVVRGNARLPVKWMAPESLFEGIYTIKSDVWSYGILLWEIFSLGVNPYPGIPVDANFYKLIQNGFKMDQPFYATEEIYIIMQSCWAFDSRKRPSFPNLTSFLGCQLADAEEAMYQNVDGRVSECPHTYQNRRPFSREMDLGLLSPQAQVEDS
Procedure: The inhibitory activities of the example compounds according to the present invention to the FLT3-ITD enzyme were evaluated. Specifically, the compound of the present invention was reacted with a purified human FLT3-ITD enzyme (Signalchem). A composition of 40 mM Tris-HCl pH 7.4, 20 mM MgCl2, 0.5 mg/mL BSA and 50 μM DTT was used as a reaction buffer, and reactions of all test matters were performed on the reaction buffer. Upon the test, human FLT3-ITD enzyme (10 ng), purified ATP (10 μM) and a specific substrate solution were reacted at 25° C. for 1 hour, and then the enzyme activity was identified using an in vitro ADP-Glo™ kinase assay (Promega). The enzyme activity reaction solution, the ADP-Glo reaction solution and the enzyme ability detection solution were reacted in a ratio of 2:2:1, and the activity inhibition degree of the enzyme was measured as luminescence. Using the solvent-treated group that was not treated with the compound as a control group, the enzyme activity inhibition degree according to the treatment concentration of each compound was calculated based on the enzyme activity fluorescence degree, and the concentration of each compound that inhibited 50%, IC50 (nM), was determined using Prism Software (version 5.01, GraphPad).

SMILES | IC50 (human GST-HPK1 (1-346)) | GI50 (MCF-7 cells) | IC50 (human FLT3-ITD enzyme)
OCCN1CC[C@@H](Oc2cc(Nc3nc(N4N=CCC4c4ccccc4)c4sccc4n3)cc(C3CC3)c2)C1 (stereo partly drawn) [Example 14, 2-((3R)-3-(3-cyclopropyl-5-((4-(5-phenyl-4,5-dihydro-1H-pyrazol-1-yl)thieno[3,2-d]pyrimidin-2-yl)amino)phenoxy)pyrrolidin-1-yl)ethan-1-ol] | > 500 nM | > 500 nM | > 500 nM
CN(C)[C@@H]1CCN(c2cccc(Nc3nc(N4OCC[C@H]4c4ccccc4)c4sccc4n3)c2)C1 [Example 61, N-(3-((R)-3-(dimethylamino)pyrrolidin-1-yl)phenyl)-4-((S)-3-phenylisoxazolidin-2-yl)thieno[3,2-d]pyrimidin-2-amine] | > 500 nM | > 500 nM | > 500 nM
COc1cc(Nc2nc(N3OCC[C@@H]3c3ccccc3)c3sccc3n2)ccc1N1CCC(N2CCN(C)CC2)CC1 [Example 58, (R)-N-(3-methoxy-4-(4-(4-methylpiperazin-1-yl)piperidin-1-yl)phenyl)-4-(3-phenylisoxazolidin-2-yl)thieno[3,2-d]pyrimidin-2-amine] | > 500 nM | > 500 nM | > 500 nM
CN(C)[C@@H]1CCN(c2cccc(Nc3nc(N4N=CCC4c4ccccc4)c4sccc4n3)c2)C1 (stereo partly drawn) [Example 17, N-(3-((R)-3-(dimethylamino)pyrrolidin-1-yl)phenyl)-4-(5-phenyl-4,5-dihydro-1H-pyrazol-1-yl)thieno[3,2-d]pyrimidin-2-amine] | > 500 nM | > 500 nM | > 500 nM
COc1cc(Nc2nc(N3OCC[C@H]3c3ccccc3)c3sccc3n2)cc(C(=O)N2CCN(CCO)CC2)c1 [Example 66, (S)-(4-(2-hydroxyethyl)piperazin-1-yl)(3-methoxy-5-((4-(3-phenylisoxazolidin-2-yl)thieno[3,2-d]pyrimidin-2-yl)amino)phenyl)methanone] | > 500 nM | > 500 nM | > 500 nM

Next, values leading:

IC50 (human GST-HPK1 (1-346)) | GI50 (MCF-7 cells) | IC50 (human FLT3-ITD enzyme) | SMILES
≥ 250 nM | > 500 nM | 250 to 500 nM | OCCN1CCN(c2ccc(Nc3nc(N4OCC[C@H]4c4ccccc4)c4cc[nH]c4n3)cc2)CC1 [Example 81, (S)-2-(4-(4-((4-(3-phenylisoxazolidin-2-yl)-7H-pyrrolo[2,3-d]pyrimidin-2-yl)amino)phenyl)piperazin-1-yl)ethan-1-ol]
≥ 250 nM | > 500 nM | 250 to 500 nM | COc1cc(Nc2nc(N3OCC[C@H]3c3ccccc3)c3cc[nH]c3n2)ccc1N1CCC(N2CCN(CCO)CC2)CC1 [Example 90, (S)-2-(4-(1-(2-methoxy-4-((4-(3-phenylisoxazolidin-2-yl)-7H-pyrrolo[2,3-d]pyrimidin-2-yl)amino)phenyl)piperidin-4-yl)piperazin-1-yl)ethan-1-ol]
> 500 nM | > 500 nM | > 500 nM | OCCN1CC[C@@H](Oc2cc(Nc3nc(N4OCC[C@H]4c4ccccc4)c4cc[nH]c4n3)cc(C3CC3)c2)C1 [Example 93, 2-((R)-3-(3-cyclopropyl-5-((4-((S)-3-phenylisoxazolidin-2-yl)-7H-pyrrolo[2,3-d]pyrimidin-2-yl)amino)phenoxy)pyrrolidin-1-yl)ethan-1-ol]
> 500 nM | > 500 nM | > 500 nM | CN(C)[C@H]1CCN(c2cccc(Nc3nc(N4OCC[C@@H]4c4ccccc4)c4cc[nH]c4n3)c2)C1 [Example 126, N-(3-((S)-3-(dimethylamino)pyrrolidin-1-yl)phenyl)-4-((R)-3-phenylisoxazolidin-2-yl)-7H-pyrrolo[2,3-d]pyrimidin-2-amine]
> 500 nM | > 500 nM | > 500 nM | CN(C)[C@H]1CCN(c2cccc(Nc3nc(N4OCC[C@H]4c4ccccc4)c4cc[nH]c4n3)c2)C1 [Example 99, N-(3-((S)-3-(dimethylamino)pyrrolidin-1-yl)phenyl)-4-((S)-3-phenylisoxazolidin-2-yl)-7H-pyrrolo[2,3-d]pyrimidin-2-amine]
